Molecules are shown by their SMILES.

For one test, the system named is A549. In words: Cytotoxicity against human A549 cells assessed as inhibition of cell viability incubated for 48 hrs by CCK8 assay. It counts as functional, cell-based. The settings on record: A549, 48 h. Background: Tetrazolium assays rely on reduction of a dye to a coloured formazan, in cell work by metabolically active cells.
A further test concerns NCI-H1299. In words: Cytotoxicity against human NCI-H1299 cells assessed as inhibition of cell viability incubated for 48 hrs by CCK8 assay. Format: functional, cell-based. The following applies: NCI-H1299, 48 h.

`c1ccc2c(c1)nc(-c1cc(-c3ccc(N4CCOCC4)cc3)on1)n2CCCN1CCOCC1`: the IC50 (as a rule, the concentration at which inhibition is half-maximal) with A549 stood at 13.6 µM; with NCI-H1299, 23.2 µM.
On the same counts, the results for `CCN(CC)CCCn1c(-c2cc(-c3ccc(N(C)C)cc3)on2)nc2ccccc21` are 8.78 µM and 19.7 µM.
On the same counts, the results for `c1ccc2c(c1)nc(-c1cc(-c3ccc(N4CCCCC4)cc3)on1)n2CCN1CCCC1` are 7.68 µM and 19 µM.
On the same counts, the results for `c1ccc2c(c1)nc(-c1cc(-c3ccc(N4CCCCCC4)cc3)on1)n2CCN1CCCCCC1` are 14.8 µM and 26.4 µM.
For `c1ccc2c(c1)nc(-c1cc(-c3ccc(N4CCOCC4)cc3)on1)n2CCCN1CCCCC1`, the IC50 is 6.25 µM in the test with A549 and 20.2 µM in the test on NCI-H1299.
Take `CN(C)c1ccc(-c2cc(-c3nc4ccccc4n3CCN3CCCCCC3)no2)cc1`: the concentration for half-maximal inhibition (IC50) with A549 is 11.4 µM; with NCI-H1299, 18.2 µM.
As for `CN(C)c1ccc(-c2cc(-c3nc4ccccc4n3CCN3CCCCC3)no2)cc1`, the IC50 in the test with A549 was 9.22 µM; in the test on NCI-H1299 it was 13.1 µM.
On the same counts, the results for `c1ccc2c(c1)nc(-c1cc(-c3ccc(N4CCCCC4)cc3)on1)n2CCCN1CCOCC1` are 13.8 µM and 24.2 µM.
On the same counts, the results for `O=C(c1ccccc1)n1c(-c2cc(-c3ccc(N4CCOCC4)cc3)on2)nc2ccccc21` are 20.9 µM and 19.5 µM.
On the same counts, the results for `c1ccc2c(c1)nc(-c1cc(-c3ccc(N4CCCCCC4)cc3)on1)n2CCCN1CCOCC1` are 20.6 µM and 22.3 µM.
In the case of `Cc1ccc(C(=O)n2c(-c3cc(-c4ccc(N5CCOCC5)cc4)on3)nc3ccccc32)cc1`, the IC50 is 19.2 µM with A549 and 22.2 µM in the test on NCI-H1299.
As to `O=C(c1ccccc1)n1c(-c2cc(-c3ccc(F)cc3)on2)nc2ccccc21`, the figures for the 50% inhibitory concentration (IC50) in the test on A549 and in the test on NCI-H1299 were more than 40 µM and 23.9 µM, respectively.
On the same counts, the results for `CCN(CC)CCCn1c(-c2cc(-c3ccc(N4CCOCC4)cc3)on2)nc2ccccc21` are 8.53 µM and 22.1 µM.
On the same counts, the results for `CCN(CC)CCCn1c(-c2cc(-c3ccc(N4CCCCC4)cc3)on2)nc2ccccc21` are 7.41 µM and 18 µM.
On the same counts, the results for `Cc1cc(C)cc(C(=O)n2c(-c3cc(-c4ccc(N5CCOCC5)cc4)on3)nc3ccccc32)c1` are 19.2 µM and more than 40 µM.
As for `c1ccc2c(c1)nc(-c1cc(-c3ccc(N4CCCCC4)cc3)on1)n2CCCN1CCCCC1`, the half-inhibitory concentration (IC50) in the test on A549 came to 13.6 µM; with NCI-H1299, 29.1 µM.
On the same counts, the results for `CN(C)c1ccc(-c2cc(-c3nc4ccccc4n3CCCN3CCCCC3)no2)cc1` are 11.6 µM and 16.9 µM.
On the same counts, the results for `CCc1ccc(C(=O)n2c(-c3cc(-c4ccc(N5CCOCC5)cc4)on3)nc3ccccc32)cc1` are 23.6 µM and 27.6 µM.
On the same counts, the results for `c1ccc2c(c1)nc(-c1cc(-c3ccc(N4CCCC4)cc3)on1)n2CCN1CCCCCC1` are 21.2 µM and 36.3 µM.
With `CN(C)CCn1c(-c2cc(-c3ccc(N4CCOCC4)cc3)on2)nc2ccccc21`, the IC50 in the test with A549 was found to be 8.92 µM; in the test on NCI-H1299, 18.9 µM.
On the same counts, the results for `c1ccc2c(c1)nc(-c1cc(-c3ccc(N4CCOCC4)cc3)on1)n2CCN1CCCCCC1` are 9.94 µM and 27.6 µM.
With `CN(C)CCCn1c(-c2cc(-c3ccc(N4CCOCC4)cc3)on2)nc2ccccc21`, the IC50 in the test on A549 was 10.1 µM; in the test on NCI-H1299, 22.3 µM.
On the same counts, the results for `CN(C)CCCn1c(-c2cc(-c3ccc(N4CCCCCC4)cc3)on2)nc2ccccc21` are 8.19 µM and 12.9 µM.
On the same counts, the results for `c1ccc2c(c1)nc(-c1cc(-c3ccc(N4CCCCCC4)cc3)on1)n2CCN1CCCC1` are 10.5 µM and 24.6 µM.
Regarding `CN(C)c1ccc(-c2cc(-c3nc4ccccc4n3CCCN3CCOCC3)no2)cc1`, the results for the 50% inhibitory concentration (IC50) in the test on A549 and with NCI-H1299 were 13.6 µM and 17 µM, respectively.
On the same counts, the results for `c1ccc2c(c1)nc(-c1cc(-c3ccc(N4CCOCC4)cc3)on1)n2CCN1CCOCC1` are 8.46 µM and 21 µM.
As to `CN(C)CCCn1c(-c2cc(-c3ccc(N(C)C)cc3)on2)nc2ccccc21`, the IC50 is 20.6 µM in the test on A549 and 17.9 µM in the test with NCI-H1299.
On the same counts, the results for `c1ccc2c(c1)nc(-c1cc(-c3ccc(N4CCCCCC4)cc3)on1)n2CCN1CCOCC1` are 10.9 µM and 21 µM.
On the same counts, the results for `c1ccc(Cn2c(-c3cc(-c4ccc(N5CCOCC5)cc4)on3)nc3ccccc32)cc1` are more than 40 µM and more than 40 µM.
On the same counts, the results for `CN(C)c1ccc(-c2cc(-c3nc4ccccc4n3CCN3CCCC3)no2)cc1` are 10.7 µM and 14.2 µM.
On to `c1ccc2c(c1)nc(-c1cc(-c3ccc(N4CCCC4)cc3)on1)n2CCN1CCOCC1`, for which the IC50 was 19.9 µM with A549 and 36 µM in the test with NCI-H1299.
On the same counts, the results for `CCN(CC)CCCn1c(-c2cc(-c3ccc(N4CCCCCC4)cc3)on2)nc2ccccc21` are 12.2 µM and 14.3 µM.
Regarding `c1ccc2c(c1)nc(-c1cc(-c3ccc(N4CCCCC4)cc3)on1)n2CCN1CCCCC1`, the IC50 in the test on A549 was 9.23 µM; in the test with NCI-H1299 it was 21.5 µM.
On the same counts, the results for `c1ccc2c(c1)nc(-c1cc(-c3ccc(N4CCCCC4)cc3)on1)n2CCN1CCOCC1` are 11.2 µM and 23.8 µM.
On the same counts, the results for `c1ccc2c(c1)nc(-c1cc(-c3ccc(N4CCCC4)cc3)on1)n2CCN1CCCC1` are 20.8 µM and 38 µM.
On the same counts, the results for `Fc1ccc(-c2cc(-c3nc4ccccc4n3Cc3ccccc3)no2)cc1` are more than 40 µM and more than 40 µM.
As to `c1ccc2c(c1)nc(-c1cc(-c3ccc(N4CCCC4)cc3)on1)n2CCCN1CCOCC1`, the figures for the IC50 in the test on A549 and in the test with NCI-H1299 were 29.5 µM and 36.2 µM, respectively.
On the same counts, the results for `c1ccc2c(c1)nc(-c1cc(-c3ccc(N4CCCCC4)cc3)on1)n2CCN1CCCCCC1` are 9.38 µM and 16.7 µM.
On the same counts, the results for `CN(C)c1ccc(-c2cc(-c3nc4ccccc4n3CCN3CCOCC3)no2)cc1` are 12.7 µM and 17.7 µM.
On the same counts, the results for `c1ccc2c(c1)nc(-c1cc(-c3ccc(N4CCCCCC4)cc3)on1)n2CCN1CCCCC1` are 10.9 µM and 21.8 µM.
With `CN(C)CCCn1c(-c2cc(-c3ccc(N4CCCCC4)cc3)on2)nc2ccccc21`, the IC50 in the test with A549 was determined as 6.04 µM; with NCI-H1299 it was 15.4 µM.
As to `Cc1cc(C)cc(OCCn2c(C3CC(=O)N(c4cccc(C)c4)C3)nc3ccccc32)c1` (stereo unspecified), the values for the 50% inhibitory concentration (IC50) in the test on A549 and in the test on NCI-H1299 were 15.3 µM and 18.8 µM, respectively.
On the same counts, the results for `Cc1ccc(C(=O)n2c(-c3cc(-c4ccc(F)cc4)on3)nc3ccccc32)cc1` are more than 40 µM and 30.1 µM.

The values are drawn from ChEMBL document CHEMBL6087414, “Discovery of 4-(4-(3-(1-(2-(piperidin-1-yl)ethyl)-1H-benzo[d]imidazole-2-yl)isoxazol-5-yl)phenyl)morpholine as a novel c-Myc inhibitor against lung cancer in vitro and in vivo” (Eur J Med Chem, 2025).
